This note sets out measurements from patent US7569567B2, “3-Heteroaryl-3,5-dihydro-4-oxo-4H-pyridazino[4,5-B]indole-1-carboxamide derivatives, their preparation and therapeutic use” (sanofi-aventis, priority 2001, dated 2009).

Each structure is given as a SMILES string.

Compound `Cc1cc(-n2nc(C(=O)N(C)C)c3c4ccc(Cl)cc4n(C)c3c2=O)ccn1` [Compound 35, 7-chloro-N,N,5-trimethyl-4-oxo-3-(2-methylpyridin-4-yl)-3,5-dihydro-4H-pyridazino[4,5-b]indole-1-carboxamide] yielded a melting point of 267 to 269 °C.

Consider `CN(C)C(=O)c1nn(-c2cncnc2)c(=O)c2c1c1ccc(Cl)cc1n2C` [Compound 22, 7-chloro-N,N,5-trimethyl-4-oxo-3-(pyrimidin-5-yl)-3,5-dihydro-4H-pyridazino[4,5-b]indole-1-carboxamide], for which the melting point lay within 251 to 252 °C.

Turning to `CN(C)C(=O)c1nn(-c2ccccn2)c(=O)c2c1c1ccc(Cl)cc1n2C` [Compound 11, 7-chloro-N,N,5-trimethyl-4-oxo-3-(pyridin-2-yl)-3,5-dihydro-4H-pyridazino[4,5-b]indole-1-carboxamide], the melting point fell in the range of 210 to 211 °C.

As for `CCN(C)C(=O)c1nn(-c2ccncc2)c(=O)c2c1c1ccc(Cl)cc1n2C` [Compound 33, 7-chloro-N-ethyl-N,5-dimethyl-4-oxo-3-(pyridin-4-yl)-3,5-dihydro-4H-pyridazino[4,5-b]indole-1-carboxamide], the melting point was in the range of 211 to 213 °C.

`CN(C)C(=O)c1nn(-c2cnccn2)c(=O)c2c1c1ccc(Cl)cc1n2C` [Compound 24, 7-chloro-N,N,5-trimethyl-4-oxo-3-(pyrazin-2-yl)-3,5-dihydro-4H-pyridazino[4,5-b]indole-1-carboxamide] displayed a melting point of 231 to 232 °C.

As for `CN(C)C(=O)c1nn(-c2cncc3ccccc23)c(=O)c2c1c1ccc(Cl)cc1n2C` [Compound 20, 7-chloro-N,N,5-trimethyl-4-oxo-3-(isoquinolin-4-yl)-3,5-dihydro-4H-pyridazino[4,5-b]indole-1-carboxamide], the melting point fell in the range of 189 to 191 °C.

Take `COc1cc(-n2nc(C(=O)N(C)C)c3c4ccc(Cl)cc4n(C)c3c2=O)ccn1` [Compound 38, 7-chloro-3-(2-methoxypyridin-4-yl)-N,N,5-trimethyl-4-oxo-3,5-dihydro-4H-pyridazino[4,5-b]indole-1-carboxamide]: the melting point was in the range of 237 to 238 °C.

Consider `CN1CCN(C(=O)c2nn(-c3cccnc3)c(=O)c3c2c2ccc(F)cc2n3C)CC1.Cl`, for which the melting point lay within 269 to 273 °C.

`CN1CCN(C(=O)c2nn(-c3cccnc3)c(=O)c3c2c2ccc(Cl)cc2n3C)CC1.Cl` displayed a melting point of 267 to 268 °C.

The compound `CN(C)C(=O)c1nn(-c2ccncc2)c(=O)c2c1c1ccc(Cl)cc1n2C.Cl` yielded a melting point of 263 to 265 °C.

`CN(C)C(=O)c1nn(-c2cc[n+]([O-])cc2)c(=O)c2c1c1ccc(Cl)cc1n2C` [Compound 37, 7-chloro-N,N,5-trimethyl-3-(1-oxidopyridin-4-yl)-4-oxo-3,5-dihydro-4H-pyridazino[4,5-b]indole-1-carboxamide]: the melting point fell in the range of 301 to 304 °C.

The compound `Cn1c2cc(F)ccc2c2c(C(=O)N3CCCC3)nn(-c3ncccn3)c(=O)c21` [Compound 6, 1-[[7-fluoro-5-methyl-3-(pyrimidin-2-yl)-4-oxo-3,5-dihydro-4H-pyridazino[4,5-b]indol-1-yl]carbonyl]-pyrrolidine] gave a melting point of 238 to 239 °C.

In turn, `Cc1ccc(-n2nc(C(=O)N(C)C)c3c4ccc(Cl)cc4n(C)c3c2=O)cn1` [Compound 17, 7-chloro-N,N,5-trimethyl-4-oxo-3-(2-methylpyridin-5-yl)-3,5-dihydro-4H-pyridazino[4,5-b]indole-1-carboxamide] returned a melting point of 214 to 216 °C.

`Cc1cc(-n2nc(C(=O)N3CCCC3)c3c4ccc(Cl)cc4n(C)c3c2=O)ccn1` [Compound 36, 1-[[7-chloro-5-methyl-3-(2-methylpyridin-4-yl)-4-oxo-3,5-dihydro-4H-pyridazino[4,5-b]indol-1-yl]carbonyl]pyrrolidine] yielded a melting point of 246 to 247 °C.

The compound `CNC(=O)c1nn(-c2cccnc2)c(=O)c2c1c1ccc(F)cc1n2C` [Compound 9, 7-fluoro-N,5-dimethyl-4-oxo-3-(pyridin-3-yl)-3,5-dihydro-4H-pyridazino[4,5-b]indole-1-carboxamide] yielded a melting point of 270 to 272 °C.

The compound `CN(C)C(=O)c1nn(-c2cccnc2)c(=O)c2c1c1ccc(Cl)cc1n2C.Cl` returned a melting point of 228 to 230 °C.

`COc1ccc(-n2nc(C(=O)N(C)C)c3c4ccc(F)cc4n(C)c3c2=O)cn1` [Compound 4, 7-fluoro-N,N,5-trimethyl-4-oxo-3-(2-methoxypyridin-5-yl)-3,5-dihydro-4H-pyridazino[4,5-b]indole-1-carboxamide]: the melting point lay within 225 to 226 °C.

For `Cl.Cn1c2cc(Cl)ccc2c2c(C(=O)N3CCCC3)nn(-c3cccnc3)c(=O)c21`, the melting point was in the range of 232 to 234 °C.

`Cn1c2cc(Cl)ccc2c2c(C(=O)N3CCCCC3)nn(-c3ccncc3)c(=O)c21` [Compound 34, 1-[[7-chloro-5-methyl-3-(pyridin-4-yl)-4-oxo-3,5-dihydro-4H-pyridazino[4,5-b]indol-1-yl]carbonyl]-piperidine] returned a melting point of 242 to 243 °C.

`COc1ccnc(-n2nc(C(=O)N(C)C)c3c4ccc(Cl)cc4n(C)c3c2=O)c1` [Compound 30, 7-chloro-N,N,5-trimethyl-4-oxo-3-(4-methoxypyridin-2-yl)-3,5-dihydro-4H-pyridazino[4,5-b]indole-1-carboxamide] came in with a melting point of 243 to 244 °C.

For the compound `CN(C)C(=O)c1nn(-c2ncccn2)c(=O)c2c1c1ccc(Cl)cc1n2C` [Compound 23, 7-chloro-N,N,5-trimethyl-4-oxo-3-(pyrimidin-2-yl)-3,5-dihydro-4H-pyridazino[4,5-b]indole-1-carboxamide], the melting point was in the range of 272 to 274 °C.

On to `CN(C)C(=O)c1nn(-c2cnc3ccccc3c2)c(=O)c2c1c1ccc(Cl)cc1n2C` [Compound 19, 7-chloro-N,N,5-trimethyl-4-oxo-3-(quinolin-3-yl)-3,5-dihydro-4H-pyridazino[4,5-b]indole-1-carboxamide], for which the melting point was in the range of 271 to 272 °C.

With `CN(C)C(=O)c1nn(-c2ccccn2)c(=O)c2c1c1ccc(F)cc1n2C` [Compound 1, 7-fluoro-N,N,5-trimethyl-4-oxo-3-(pyridin-2-yl)-3,5-dihydro-4H-pyridazino[4,5-b]indole-1-carboxamide], the melting point lay in the range of 199 to 200 °C.

`CNC(=O)c1nn(-c2ccncc2)c(=O)c2c1c1ccc(Cl)cc1n2C` [Compound 28, 7-chloro-N,5-dimethyl-4-oxo-3-(pyridin-4-yl)-3,5-dihydro-4H-pyridazino[4,5-b]indole-1-carboxamide] registered a melting point of 321 to 323 °C.

Take `CN(C)C(=O)c1nn(-c2cccnc2)c(=O)c2c1c1ccc(F)cc1n2C` [Compound 2, 7-fluoro-N,N,5-trimethyl-4-oxo-3-(pyridin-3-yl)-3,5-dihydro-4H-pyridazino[4,5-b]indole-1-carboxamide]: the melting point lay in the range of 220 to 221 °C.

As for `Cn1c2cc(Cl)ccc2c2c(C(N)=O)nn(-c3ccncc3)c(=O)c21` [Compound 29, 7-chloro-5-methyl-4-oxo-3-(pyridin-4-yl)-3,5-dihydro-4H-pyridazino[4,5-b]indole-1-carboxamide], the melting point was 341 to 346 °C.

With `Cn1c2cc(F)ccc2c2c(C(=O)N3CCCC3)nn(-c3cccnc3)c(=O)c21` [Compound 8, 1-[[7-fluoro-5-methyl-3-(pyridin-3-yl)-4-oxo-3,5-dihydro-4H-pyridazino[4,5-b]indol-1-yl]carbonyl]-pyrrolidine], the melting point was in the range of 220 to 221 °C.

Consider `CN(C)C(=O)c1nn(-c2cnc3ccccc3c2)c(=O)c2c1c1ccc(F)cc1n2C` [Compound 5, 7-fluoro-N,N,5-trimethyl-4-oxo-3-(quinolin-3-yl)-3,5-dihydro-4H-pyridazino[4,5-b]indole-1-carboxamide], for which the melting point was in the range of 237 to 238 °C.

In the case of `Cn1c2cc(F)ccc2c2c(C(N)=O)nn(-c3cccnc3)c(=O)c21` [Compound 10, 7-fluoro-5-methyl-4-oxo-3-(pyridin-3-yl)-3,5-dihydro-4H-pyridazino[4,5-b]indole-1-carboxamide], the melting point was in the range of 319 to 320 °C.

Turning to `CN(C)C(=O)c1nn(-c2ccncc2)c(=O)c2c1c1ccc(Cl)cc1n2C` [Compound 13, 7-chloro-N,N,5-trimethyl-4-oxo-3-(pyridin-4-yl)-3,5-dihydro-4H-pyridazino[4,5-b]indole-1-carboxamide], the melting point lay in the range of 276 to 278 °C.

Compound `Cc1ccc(-n2nc(C(=O)N(C)C)c3c4ccc(Cl)cc4n(C)c3c2=O)nc1` [Compound 15, 7-chloro-N,N,5-trimethyl-4-oxo-3-(5-methylpyridin-2-yl)-3,5-dihydro-4H-pyridazino[4,5-b]indole-1-carboxamide] yielded a melting point of 222 to 224 °C.

`COc1ccc(-n2nc(C(=O)N(C)C)c3c4ccc(Cl)cc4n(C)c3c2=O)cn1` [Compound 16, 7-chloro-N,N,5-trimethyl-4-oxo-3-(2-methoxypyridin-5-yl)-3,5-dihydro-4H-pyridazino[4,5-b]indole-1-carboxamide]: the melting point lay within 236 to 237 °C.

As for `Cn1c2cc(Cl)ccc2c2c(C(=O)N3CCCC3)nn(-c3ccncc3)c(=O)c21` [Compound 27, 1-[[7-chloro-5-methyl-3-(pyridin-4-yl)-4-oxo-3,5-dihydro-4H-pyridazino[4,5-b]indol-1-yl]carbonyl]-pyrrolidine], the melting point lay in the range of 236 to 237 °C.

Consider `CN(C)C(=O)c1nn(-c2ccncc2)c(=O)c2c1c1ccc(F)cc1n2C.Cl`, for which the melting point lay in the range of 266 to 271 °C.

The compound `CN(C)C(=O)c1nn(-c2ccc(Br)nc2)c(=O)c2c1c1ccc(Cl)cc1n2C` [Compound 18, 7-chloro-N,N,5-trimethyl-4-oxo-3-(2-bromopyridin-5-yl)-3,5-dihydro-4H-pyridazino[4,5-b]indole-1-carboxamide] had a melting point of 250 to 252 °C.

On to `Cc1ccc(-n2nc(C(=O)N(C)C)c3c4ccc(Cl)cc4n(C)c3c2=O)nn1` [Compound 21, 7-chloro-N,N,5-trimethyl-4-oxo-3-(6-methyl-pyridazin-3-yl)-3,5-dihydro-4H-pyridazino[4,5-b]indole-1-carboxamide], for which the melting point lay in the range of 238 to 239 °C.
